Measurements as given in US20260364213A1, “RADIOLABELED COMPOUNDS OF TRIMETHOPRIM AND USES THEREOF” (THE TRUSTEES OF THE UNIVERSITY OF PENNSYLVANIA, priority 2023, published 2026).
Entries after “also recorded” stand apart in the source; their conditions may differ.

Assays:
[1] = Ex vivo biodistribution in healthy Balb/c mice; set-up: species or system mouse
Procedure: Given promising in vitro experimental results, a biodistribution study was conducted on healthy balb/c mice. […] Mice were then euthanized 1-hour, 4-hour, and 24-hour post radiotracer injection, and organs were harvested for bio-distribution quantification. […] Total radioactive uptake per organ, in CPM, was determined by γ-counter (Wizard Detector, Perkin Elmer). […] See, FIG. 10A-10B and FIG. 11. These tissues could be sites where eDHFR could be localized using genetic vectors to achieve a high therapeutic index.
Another ex-vivo biodistribution study was performed with potassium iodide (SSKI) administration 8-12-week-old female balb/c mice (n=9) were administered with intraperitoneal administration for thyroid protection, with a dose of 100 mg/kg potassium iodide in a volume of 100 μL/10 g given the day before treatment, 30 minutes before the radioactive [^131I]mI-TMP injection.

eDHFR = biological target: T1, eDHFR (Escherichia coli, UniProt P0ABQ4); test: Uptake and washout in HCT116-eDHFR-Luc vs WT cells; assay type: cell-based; set-up: in CAR T cells fused to C-terminus of CD3zeta of FAP-CAR
T1 sequence (P0ABQ4 1-159): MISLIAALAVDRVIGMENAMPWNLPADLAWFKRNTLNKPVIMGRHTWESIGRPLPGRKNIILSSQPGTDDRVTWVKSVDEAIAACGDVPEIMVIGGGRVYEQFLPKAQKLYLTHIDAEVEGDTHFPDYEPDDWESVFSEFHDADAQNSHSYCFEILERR
Procedure: The cells were sampled at 1 h, 2 h and 4 h. […] Similarly, the process cells was repeated for 2 h and 4 h samples.
Next, the therapeutic effect of [^131/125I]mI-TMP in a human colorectal carcinoma cell line, HCT116 was analyzed. […] The specificity of radiotracer uptake was determined by blocking conditions. […] See, FIG. 10A.
A washout study was performed to know the retention of the tracer in the cells. HCT116_eDHFR cells were incubated with 0.037 MBq of compound 5b for 20 minutes. The cells were washed, resuspended and sampled at 60, 120 and 240 minutes. […] To examine the radiotherapeutic effect, the incubation period was increased and the dose […]. The cells were dosed with 3.7 MBq at 37 °C and incubated them with 2 and 4 hours. See, FIG. 10B.

HCT116 tumor cells = test: Radiotherapy of HCT116 tumor-bearing athymic nude mice; assay type: in vivo, human
Description: Tumor size measurements were taken using calipers from day 1 to 14 post-injection of the [^131I]mI-TMP to monitor the response of radiation therapy. […] See, FIG. 11 and FIG. 12.
To evaluate the therapeutic potential [^131I]mI-TMP, sixteen (16) 8- to 12-week-old female athymic nude mice (Charles River Laboratories) were inoculated with 1×10^7 HCT116 tumor cells (eDHFR+ or WT) on the left shoulder. The mice were then divided into two groups: […] (8) mice with HCT116-eDHFR (eDHFR-positive cells) and Eight (8) mice with HCT116-WT (eDHFR-negative) cells.
Three (3) of the five (5) mice from each cohort were imaged at 3- and 24-hours post [^131I]mI-TMPI radiotherapy injection using small animal SPECT and CT instruments. Five (5) mice from each cohort (which included the 3 imaged mice from each cohort) were then monitored for 14 days using caliper measurements and IVIS imaging.

I45 eDHFR-FLAG tumors = test: Biodistribution in I45 tumor-bearing CD1 nude mice; assay type: in vivo, human; settings: 24 hours
Procedure: RLT in I45 tumors. […] Briefly, I45 eDHFR-FLAG and WT cells were xenografted into the shoulders of female athymic CD1-Foxn1nu mice. The tumors were allowed to grow for ~2 weeks. Subsequently, [^131I]I-TMP was administered intravenously and a limited biodistribution study was performed. […] To assess for cytotoxicity in I45 mesothelioma cells, I45 WT and I45 eDHFR tumors were separately xenografted into CD1-Foxn1nu mice and either [^131I]I-TMP or saline was administered to form 4 experimental cohorts (n=7).
(v) In vivo I45 eDHFR-FLAG Tumor Model. Female CD1 nu/nu mice, aged six to eight weeks, were subject to subcutaneous xenografting. Specifically, I45 eDHFR-Flag cells (1×10^6 cells/mouse) were suspended in a solution comprising equal volumes of 75 μL RPMI complete medium and 75 μL Matrigel Matrix (Corning, 354234) for implantation on the shoulder.

Serum stability in FBS = assay type: in vitro ADME; settings: FBS at 37 °C, 72 hours, radio-TLC
Procedure: In vitro serum stability of was performed by adding the [^131I]mI-TMP (50 μL, 1.85 MBq) to fetal bovine serum (500 μL). The mixture was then incubated in a ThermoMixer (800 rpm) at 37 °C, and deiodination was analyzed by radio-TLC (10% NH40Ac:MeOH=3:7) at 0, 24, and 72 h. In this condition, free I-131 moved to solvent front whereas intact [^131I]I-TMP remained at the origin.

SMILES | stomach and liver uptake with KI pre-treatment ([1]; 0.67 MBq, 1 h) | uptake in blood, heart, lungs, brain, pancreas, bones and spleen with KI pre-treatment ([1]; 0.67 MBq, 1 h) | organ radioactivity, 24 h ([1]; 0.74 MBq i.v. tail vein, 24 h, no KI) | organ radioactivity, 1 h ([1]; 0.74 MBq i.v. tail vein, Balb/c, after 1 h time point) | uptake in heart, lungs, brain, pancreas, bones and spleen ([1]; 0.74 MBq i.v., all time points (1, 4, 24 h)) | organ radioactivity with KI pre-treatment ([1]; kidney, small intestine, large intestine, 0.67 MBq, 1 h) | thyroid uptake with KI pre-treatment ([1]; potassium iodide (SSKI) 100 mg/kg, 0.67 MBq, 1 h) | uptake of radiotracer in eDHFR+ cells in comparison to wild-type (eDHFR) | tumor size, eDHFR-Luc tumors (HCT116 tumor cells; 18.5 MBq (500 μCi) i.v. tail vein, caliper, day 1 to 14) | tumor size, eDHFR-negative tumors (HCT116 tumor cells; 18.5 MBq (500 μCi) i.v., day 7 to day 14) | presence in eDHFR+ tumors (I45 eDHFR-FLAG tumors; 18.5 MBq i.v.) | uptake in eDHFR tumors compared to WT tumors (I45 eDHFR-FLAG tumors) | washout from eDHFR tumors (I45 eDHFR-FLAG tumors) | serum stability, deiodination (Serum stability in FBS)
COc1cc(Cc2cnc(N)nc2N)cc([131I])c1OC [[^131I]mI-TMP, 5-(3-iodo-4,5-dimethoxybenzyl)pyrimidine-2,4-diamine] | low uptake | Minimal to no uptake; also recorded: negligible uptake | increase in radioactivity in thyroid, indicating the deiodination | significant increase in the radioactivity in the kidney, small intestine, stomach, and liver | Minimal to no uptake | significant increase in the radioactivity in the kidney, small intestine and large intestine | abrogated thyroid uptake | two-fold increase in uptake | reduction in tumor size at day 7 post-injection, which remained stable until day 10 but increased by day 14 | continued to grow from day 7 to day 14 | present in eDHFR+ tumors, even after 24 hours | over 1000 fold | without substantial washout | –
COc1cc(Cc2cnc(N)nc2N)cc(I)c1OC [[^131I]mI-TMP, 5-(3-iodo-4,5-dimethoxybenzyl)pyrimidine-2,4-diamine] | – | – | – | – | – | – | – | – | – | – | – | – | – | without any detectable deiodination
